# Measured values taken from the kinase profiling compilation of Christmann-Franck et al. (2016).
# Experiments:
# Assay in all cases: KINOMEscan competition binding
# CASK (human) = CASK (human) (UniProt O14936); settings: compound 1.0 µM
# CDK3 (human) = CDK3 (human) (UniProt Q00526); settings: compound 1.0 µM
# CDK5 (human) = CDK5 (human) (UniProt Q00535); settings: compound 1.0 µM
# CLK1 (human) = CLK1 (human) (UniProt P49759); settings: compound 1.0 µM
# DYRK1A (human) = DYRK1A (human) (UniProt Q13627); settings: compound 1.0 µM
# [1] = test system: EGFR (human), P00533 [G719C]; settings: compound 1.0 µM
# EIF2AK2 (human) = EIF2AK2 (human) (UniProt P19525); settings: compound 1.0 µM
# FGFR4 (human) = FGFR4 (human) (UniProt P22455); settings: compound 1.0 µM
# GRK7 (human) = GRK7 (human) (UniProt Q8WTQ7); settings: compound 1.0 µM
# HIPK2 (human) = HIPK2 (human) (UniProt Q9H2X6); settings: compound 1.0 µM
# IKBKB (human) = IKBKB (human) (UniProt O14920); settings: compound 1.0 µM
# [2] = test system: KIT (human), P10721 [V559D/T670I]; settings: for kinase still bound, per cent of control: compound 1.0 µM
# MAP3K2 (human) = MAP3K2 (human) (UniProt Q9Y2U5); settings: compound 1.0 µM
# MAP3K3 (human) = MAP3K3 (human) (UniProt Q99759); settings: compound 1.0 µM
# MAP4K4 (human) = MAP4K4 (human) (UniProt O95819); settings: compound 1.0 µM
# MAPK3 (human) = MAPK3 (human) (UniProt P27361); settings: compound 1.0 µM
# MAPK9 (human) = MAPK9 (human) (UniProt P45984); settings: compound 1.0 µM
# [3] = test system: MET (human), P08581 [M1250T]; settings: compound 1.0 µM
# MYLK3 (human) = MYLK3 (human) (UniProt Q32MK0); settings: compound 1.0 µM
# MYLK4 (human) = MYLK4 (human) (UniProt Q86YV6); settings: compound 1.0 µM
# NEK4 (human) = NEK4 (human) (UniProt P51957); settings: compound 1.0 µM
# NEK6 (human) = NEK6 (human) (UniProt Q9HC98); settings: compound 1.0 µM
# NEK7 (human) = NEK7 (human) (UniProt Q8TDX7); settings: compound 1.0 µM
# PAK1 (human) = PAK1 (human) (UniProt Q13153); settings: compound 1.0 µM
# PAK2 (human) = PAK2 (human) (UniProt Q13177); settings: compound 1.0 µM
# PDGFRA (human) = PDGFRA (human) (UniProt P16234); settings: compound 1.0 µM
# PI4KB (human) = PI4KB (human) (UniProt Q9UBF8); settings: compound 1.0 µM
# [4] = test system: PIK3CA (human), P42336 [Q546K]; settings: compound 1.0 µM
# PLK3 (human) = PLK3 (human) (UniProt Q9H4B4); settings: compound 1.0 µM
# PRKCQ (human) = PRKCQ (human) (UniProt Q04759); settings: compound 1.0 µM
# PRKD2 (human) = PRKD2 (human) (UniProt Q9BZL6); settings: compound 1.0 µM
# PRKD3 (human) = PRKD3 (human) (UniProt O94806); settings: for kinase still bound, per cent of control: compound 1.0 µM
# PTK2B (human) = PTK2B (human) (UniProt Q14289); settings: compound 1.0 µM
# RAF1 (human) = RAF1 (human) (UniProt P04049); settings: compound 1.0 µM
# [5] = test system: RET (human), P07949 [M918T]; settings: compound 1.0 µM
# RIOK2 (human) = RIOK2 (human) (UniProt Q9BVS4); settings: for kinase still bound, per cent of control: compound 1.0 µM
# STK17B (human) = STK17B (human) (UniProt O94768); settings: compound 1.0 µM
# STK3 (human) = STK3 (human) (UniProt Q13188); settings: compound 1.0 µM
# TEK (human) = TEK (human) (UniProt Q02763); settings: compound 1.0 µM
# TLK1 (human) = TLK1 (human) (UniProt Q9UKI8); settings: compound 1.0 µM
# TSSK1B (human) = TSSK1B (human) (UniProt Q9BXA7); settings: compound 1.0 µM
# WEE1 (human) = WEE1 (human) (UniProt P30291); settings: compound 1.0 µM
# YES1 (human) = YES1 (human) (UniProt P07947); settings: compound 1.0 µM
# Sequence of STK3 (human) (Q13188 whole entry, looked up): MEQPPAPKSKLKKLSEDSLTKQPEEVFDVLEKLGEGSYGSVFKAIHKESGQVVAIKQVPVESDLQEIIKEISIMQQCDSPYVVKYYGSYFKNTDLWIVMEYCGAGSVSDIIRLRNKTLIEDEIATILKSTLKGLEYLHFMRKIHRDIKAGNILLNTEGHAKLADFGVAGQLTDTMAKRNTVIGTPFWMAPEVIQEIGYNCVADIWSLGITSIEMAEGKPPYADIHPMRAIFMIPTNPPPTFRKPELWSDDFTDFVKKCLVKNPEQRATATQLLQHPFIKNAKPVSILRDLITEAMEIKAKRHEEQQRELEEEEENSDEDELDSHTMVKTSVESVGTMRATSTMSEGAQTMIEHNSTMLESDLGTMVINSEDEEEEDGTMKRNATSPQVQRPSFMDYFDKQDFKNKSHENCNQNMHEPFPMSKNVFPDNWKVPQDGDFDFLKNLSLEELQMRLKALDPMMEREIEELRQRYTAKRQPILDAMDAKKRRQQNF
# Sequence of MYLK4 (human) (Q86YV6 whole entry, looked up): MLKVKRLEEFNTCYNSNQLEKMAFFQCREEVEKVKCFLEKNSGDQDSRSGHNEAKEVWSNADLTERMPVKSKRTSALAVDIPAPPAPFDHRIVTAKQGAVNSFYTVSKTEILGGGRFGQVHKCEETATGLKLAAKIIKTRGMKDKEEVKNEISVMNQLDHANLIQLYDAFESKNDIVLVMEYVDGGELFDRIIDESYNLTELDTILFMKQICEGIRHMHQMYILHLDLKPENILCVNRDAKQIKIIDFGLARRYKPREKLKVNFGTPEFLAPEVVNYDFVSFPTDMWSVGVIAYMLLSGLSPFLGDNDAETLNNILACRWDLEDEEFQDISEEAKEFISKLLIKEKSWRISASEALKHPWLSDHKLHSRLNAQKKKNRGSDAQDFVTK
# Sequence of NEK7 (human) (Q8TDX7 whole entry, looked up): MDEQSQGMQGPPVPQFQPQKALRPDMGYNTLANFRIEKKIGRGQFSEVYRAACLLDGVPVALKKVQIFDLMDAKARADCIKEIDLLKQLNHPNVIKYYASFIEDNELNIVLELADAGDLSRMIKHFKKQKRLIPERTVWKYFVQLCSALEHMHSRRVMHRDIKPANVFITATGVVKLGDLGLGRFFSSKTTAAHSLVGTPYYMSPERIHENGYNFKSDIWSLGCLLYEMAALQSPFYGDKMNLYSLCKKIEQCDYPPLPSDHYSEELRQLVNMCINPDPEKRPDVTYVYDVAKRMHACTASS
# Sequence of WEE1 (human) (P30291 whole entry, looked up): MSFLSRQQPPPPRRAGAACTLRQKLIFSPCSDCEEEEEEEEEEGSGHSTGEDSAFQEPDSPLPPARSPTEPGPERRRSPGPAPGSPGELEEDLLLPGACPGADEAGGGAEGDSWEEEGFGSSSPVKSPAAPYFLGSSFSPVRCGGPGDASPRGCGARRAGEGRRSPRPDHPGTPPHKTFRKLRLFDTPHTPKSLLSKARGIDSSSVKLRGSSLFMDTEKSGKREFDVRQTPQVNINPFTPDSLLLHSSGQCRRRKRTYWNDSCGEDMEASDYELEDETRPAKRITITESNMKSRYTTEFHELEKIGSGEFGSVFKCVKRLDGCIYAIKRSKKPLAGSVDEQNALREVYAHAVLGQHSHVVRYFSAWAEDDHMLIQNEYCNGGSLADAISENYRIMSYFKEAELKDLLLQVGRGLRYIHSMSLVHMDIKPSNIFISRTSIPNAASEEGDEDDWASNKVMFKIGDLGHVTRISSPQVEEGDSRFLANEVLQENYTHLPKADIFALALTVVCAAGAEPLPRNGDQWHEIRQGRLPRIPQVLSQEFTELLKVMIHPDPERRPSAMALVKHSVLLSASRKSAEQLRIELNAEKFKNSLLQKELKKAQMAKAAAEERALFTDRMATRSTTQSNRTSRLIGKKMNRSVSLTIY
# Sequence of FGFR4 (human) (P22455 whole entry, looked up): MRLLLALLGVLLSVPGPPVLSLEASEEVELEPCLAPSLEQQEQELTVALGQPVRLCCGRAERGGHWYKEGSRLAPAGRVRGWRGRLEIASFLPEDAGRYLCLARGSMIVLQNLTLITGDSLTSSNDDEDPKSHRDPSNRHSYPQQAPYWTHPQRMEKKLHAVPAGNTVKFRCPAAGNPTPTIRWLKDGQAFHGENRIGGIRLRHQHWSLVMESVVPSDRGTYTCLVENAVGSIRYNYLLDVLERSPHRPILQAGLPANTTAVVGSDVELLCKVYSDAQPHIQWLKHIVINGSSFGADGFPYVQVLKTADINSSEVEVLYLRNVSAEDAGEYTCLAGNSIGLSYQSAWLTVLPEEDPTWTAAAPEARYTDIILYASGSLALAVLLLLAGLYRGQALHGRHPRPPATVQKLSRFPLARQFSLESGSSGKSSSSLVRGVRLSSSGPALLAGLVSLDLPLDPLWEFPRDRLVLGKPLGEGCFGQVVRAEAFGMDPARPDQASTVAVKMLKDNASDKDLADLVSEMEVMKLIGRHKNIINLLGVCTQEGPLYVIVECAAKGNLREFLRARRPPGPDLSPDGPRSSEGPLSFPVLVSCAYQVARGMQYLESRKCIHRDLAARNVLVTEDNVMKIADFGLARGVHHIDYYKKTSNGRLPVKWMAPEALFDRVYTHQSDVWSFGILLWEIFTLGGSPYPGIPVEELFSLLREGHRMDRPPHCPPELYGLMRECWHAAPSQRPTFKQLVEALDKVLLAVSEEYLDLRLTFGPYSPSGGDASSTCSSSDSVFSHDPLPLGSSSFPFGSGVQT
# Sequence of PDGFRA (human) (P16234 whole entry, looked up): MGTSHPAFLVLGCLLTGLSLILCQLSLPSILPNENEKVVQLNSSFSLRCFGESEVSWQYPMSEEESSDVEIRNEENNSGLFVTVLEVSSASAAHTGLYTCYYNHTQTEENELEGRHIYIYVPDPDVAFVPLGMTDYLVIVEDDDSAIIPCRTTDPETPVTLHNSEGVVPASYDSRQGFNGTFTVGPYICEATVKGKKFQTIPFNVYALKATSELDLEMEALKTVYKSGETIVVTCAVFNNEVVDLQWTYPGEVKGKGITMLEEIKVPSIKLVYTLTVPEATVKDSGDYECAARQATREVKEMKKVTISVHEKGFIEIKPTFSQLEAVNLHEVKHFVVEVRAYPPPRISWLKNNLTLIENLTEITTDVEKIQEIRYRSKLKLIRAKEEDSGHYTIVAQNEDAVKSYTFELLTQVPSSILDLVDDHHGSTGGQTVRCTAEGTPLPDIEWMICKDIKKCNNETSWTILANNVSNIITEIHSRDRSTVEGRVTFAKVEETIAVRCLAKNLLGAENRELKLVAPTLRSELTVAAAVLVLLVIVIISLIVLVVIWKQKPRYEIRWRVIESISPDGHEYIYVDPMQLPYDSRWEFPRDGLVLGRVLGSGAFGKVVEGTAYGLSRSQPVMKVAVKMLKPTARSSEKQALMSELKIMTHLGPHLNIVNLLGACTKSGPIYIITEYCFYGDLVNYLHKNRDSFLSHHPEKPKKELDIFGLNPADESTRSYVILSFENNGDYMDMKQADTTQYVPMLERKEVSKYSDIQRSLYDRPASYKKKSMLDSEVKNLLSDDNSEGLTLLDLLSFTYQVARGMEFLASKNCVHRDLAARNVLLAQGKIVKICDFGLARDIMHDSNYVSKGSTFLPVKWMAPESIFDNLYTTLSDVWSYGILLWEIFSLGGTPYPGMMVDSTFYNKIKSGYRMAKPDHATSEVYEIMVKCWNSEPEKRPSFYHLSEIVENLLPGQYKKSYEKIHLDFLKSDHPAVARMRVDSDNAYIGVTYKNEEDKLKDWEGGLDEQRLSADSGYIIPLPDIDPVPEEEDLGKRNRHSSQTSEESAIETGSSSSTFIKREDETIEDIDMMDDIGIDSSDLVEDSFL
# Sequence of PLK3 (human) (Q9H4B4 whole entry, looked up): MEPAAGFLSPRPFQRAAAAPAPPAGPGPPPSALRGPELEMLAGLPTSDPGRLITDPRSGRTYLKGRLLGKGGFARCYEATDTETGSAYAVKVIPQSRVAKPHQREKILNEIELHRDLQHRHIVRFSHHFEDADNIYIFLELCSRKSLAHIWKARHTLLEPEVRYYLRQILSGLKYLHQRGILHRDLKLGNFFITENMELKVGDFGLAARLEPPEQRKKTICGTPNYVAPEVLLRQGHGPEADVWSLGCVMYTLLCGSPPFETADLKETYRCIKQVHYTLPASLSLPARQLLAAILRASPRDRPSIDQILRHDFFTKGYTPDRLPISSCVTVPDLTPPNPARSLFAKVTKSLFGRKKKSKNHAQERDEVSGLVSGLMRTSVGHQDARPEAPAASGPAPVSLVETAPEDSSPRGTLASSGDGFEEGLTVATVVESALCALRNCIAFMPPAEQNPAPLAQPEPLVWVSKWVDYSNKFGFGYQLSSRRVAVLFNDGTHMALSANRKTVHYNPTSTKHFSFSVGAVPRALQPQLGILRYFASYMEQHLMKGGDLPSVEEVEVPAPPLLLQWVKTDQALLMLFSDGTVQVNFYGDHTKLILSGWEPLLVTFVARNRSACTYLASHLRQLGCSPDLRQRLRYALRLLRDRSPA
# Sequence of MAP3K3 (human) (Q99759 whole entry, looked up): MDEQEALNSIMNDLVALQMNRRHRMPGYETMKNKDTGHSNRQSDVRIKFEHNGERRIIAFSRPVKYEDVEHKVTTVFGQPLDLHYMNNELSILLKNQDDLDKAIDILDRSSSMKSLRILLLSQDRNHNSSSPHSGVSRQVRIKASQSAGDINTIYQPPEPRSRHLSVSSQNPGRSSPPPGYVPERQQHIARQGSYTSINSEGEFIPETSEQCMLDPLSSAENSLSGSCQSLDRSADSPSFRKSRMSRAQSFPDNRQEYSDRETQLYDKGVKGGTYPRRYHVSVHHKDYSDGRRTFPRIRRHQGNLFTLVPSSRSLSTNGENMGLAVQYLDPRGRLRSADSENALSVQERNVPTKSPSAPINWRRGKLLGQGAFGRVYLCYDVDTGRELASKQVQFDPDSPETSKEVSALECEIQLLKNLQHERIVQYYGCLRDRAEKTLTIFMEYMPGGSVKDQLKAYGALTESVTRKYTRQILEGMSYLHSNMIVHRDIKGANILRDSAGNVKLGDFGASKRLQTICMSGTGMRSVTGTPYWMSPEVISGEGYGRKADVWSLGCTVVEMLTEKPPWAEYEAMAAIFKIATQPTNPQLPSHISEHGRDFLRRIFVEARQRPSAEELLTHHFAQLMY
structure (smiles),measurement,setting,value
CN(C)C/C=C/C(=O)Nc1cccc(C(=O)Nc2ccc(Nc3nccc(-c4cccnc4)n3)cc2)c1,"kinase still bound, per cent of control",CASK (human),100%
same,"kinase still bound, per cent of control",CDK3 (human),100%
same,"kinase still bound, per cent of control",CDK5 (human),89%
same,"kinase still bound, per cent of control",CLK1 (human),12%
same,"kinase still bound, per cent of control",DYRK1A (human),37%
same,"kinase still bound, per cent of control",[1],48%
same,"kinase still bound, per cent of control",EIF2AK2 (human),53%
same,"kinase still bound, per cent of control",FGFR4 (human),100%
same,"kinase still bound, per cent of control",GRK7 (human),86%
same,"kinase still bound, per cent of control",HIPK2 (human),9.2%
same,"kinase still bound, per cent of control",IKBKB (human),48%
same,"kinase still bound, per cent of control",[2],9.8%
same,"kinase still bound, per cent of control",MAP3K2 (human),100%
same,"kinase still bound, per cent of control",MAP3K3 (human),77%
same,"kinase still bound, per cent of control",MAP4K4 (human),40%
same,"kinase still bound, per cent of control",MAPK3 (human),100%
same,"kinase still bound, per cent of control",MAPK9 (human),0%
same,"kinase still bound, per cent of control",[3],100%
same,"kinase still bound, per cent of control",MYLK3 (human),85%
same,"kinase still bound, per cent of control",MYLK4 (human),34%
same,"kinase still bound, per cent of control",NEK4 (human),83%
same,"kinase still bound, per cent of control",NEK6 (human),17%
same,"kinase still bound, per cent of control",NEK7 (human),7%
same,"kinase still bound, per cent of control",PAK1 (human),69%
same,"kinase still bound, per cent of control",PAK2 (human),87%
same,"kinase still bound, per cent of control",PDGFRA (human),67%
same,"kinase still bound, per cent of control",PI4KB (human),71%
same,"kinase still bound, per cent of control",[4],100%
same,"kinase still bound, per cent of control",PLK3 (human),75%
same,"kinase still bound, per cent of control",PRKCQ (human),100%
same,"kinase still bound, per cent of control",PRKD2 (human),100%
same,"kinase still bound, per cent of control",PRKD3 (human),100%
same,"kinase still bound, per cent of control",PTK2B (human),100%
same,"kinase still bound, per cent of control",RAF1 (human),100%
same,"kinase still bound, per cent of control",[5],100%
same,Kd,RIOK2 (human),30 nM
same,"kinase still bound, per cent of control",RIOK2 (human),2.2%
same,"kinase still bound, per cent of control",STK17B (human),24%
same,"kinase still bound, per cent of control",STK3 (human),87%
same,"kinase still bound, per cent of control",TEK (human),98%
same,"kinase still bound, per cent of control",TLK1 (human),92%
same,"kinase still bound, per cent of control",TSSK1B (human),100%
same,"kinase still bound, per cent of control",WEE1 (human),84%
same,"kinase still bound, per cent of control",YES1 (human),98%
CN(C)C/C=C/C(=O)Nc1cccc(C(=O)Nc2ccc(Nc3nccc(-c4c(-c5ccccc5)nn5ccccc45)n3)cc2)c1,"kinase still bound, per cent of control",CASK (human),52%
same,"kinase still bound, per cent of control",CDK3 (human),100%
same,"kinase still bound, per cent of control",CDK5 (human),100%
same,"kinase still bound, per cent of control",CLK1 (human),95%
same,"kinase still bound, per cent of control",DYRK1A (human),90%
same,"kinase still bound, per cent of control",[1],0.55%
same,"kinase still bound, per cent of control",EIF2AK2 (human),92%
same,"kinase still bound, per cent of control",FGFR4 (human),100%
same,"kinase still bound, per cent of control",GRK7 (human),86%
same,"kinase still bound, per cent of control",HIPK2 (human),97%
same,"kinase still bound, per cent of control",IKBKB (human),84%
same,"kinase still bound, per cent of control",[2],4%
same,"kinase still bound, per cent of control",MAP3K2 (human),52%
same,"kinase still bound, per cent of control",MAP3K3 (human),68%
same,"kinase still bound, per cent of control",MAP4K4 (human),9.8%
same,"kinase still bound, per cent of control",MAPK3 (human),100%
same,"kinase still bound, per cent of control",MAPK9 (human),0%
same,"kinase still bound, per cent of control",[3],70%
same,"kinase still bound, per cent of control",MYLK3 (human),91%
same,"kinase still bound, per cent of control",MYLK4 (human),100%
same,"kinase still bound, per cent of control",NEK4 (human),100%
same,"kinase still bound, per cent of control",NEK6 (human),100%
same,"kinase still bound, per cent of control",NEK7 (human),100%
same,"kinase still bound, per cent of control",PAK1 (human),98%
same,"kinase still bound, per cent of control",PAK2 (human),88%
same,"kinase still bound, per cent of control",PDGFRA (human),4.4%
same,"kinase still bound, per cent of control",PI4KB (human),69%
same,"kinase still bound, per cent of control",[4],100%
same,"kinase still bound, per cent of control",PLK3 (human),100%
same,"kinase still bound, per cent of control",PRKCQ (human),28%
same,"kinase still bound, per cent of control",PRKD2 (human),15%
same,Kd,PRKD3 (human),240 nM
same,"kinase still bound, per cent of control",PRKD3 (human),0%
same,"kinase still bound, per cent of control",PTK2B (human),85%
same,"kinase still bound, per cent of control",RAF1 (human),83%
same,"kinase still bound, per cent of control",[5],10%
same,"kinase still bound, per cent of control",RIOK2 (human),27%
same,"kinase still bound, per cent of control",STK17B (human),100%
same,"kinase still bound, per cent of control",STK3 (human),99%
same,"kinase still bound, per cent of control",TEK (human),67%
same,"kinase still bound, per cent of control",TLK1 (human),67%
same,"kinase still bound, per cent of control",TSSK1B (human),86%
same,"kinase still bound, per cent of control",WEE1 (human),100%
same,"kinase still bound, per cent of control",YES1 (human),12%
CN(C)C/C=C/C(=O)Nc1cccc(C(=O)Nc2ccc(Nc3nccc(/C(C#N)=C4\Nc5ccccc5S4)n3)cc2)c1,"kinase still bound, per cent of control",CASK (human),100%
same,"kinase still bound, per cent of control",CDK3 (human),100%
same,"kinase still bound, per cent of control",CDK5 (human),100%
same,"kinase still bound, per cent of control",CLK1 (human),42%
same,"kinase still bound, per cent of control",DYRK1A (human),87%
same,"kinase still bound, per cent of control",[1],86%
same,"kinase still bound, per cent of control",EIF2AK2 (human),100%
same,"kinase still bound, per cent of control",FGFR4 (human),100%
same,"kinase still bound, per cent of control",GRK7 (human),81%
same,"kinase still bound, per cent of control",HIPK2 (human),60%
same,"kinase still bound, per cent of control",IKBKB (human),87%
same,Kd,[2],160 nM
same,"kinase still bound, per cent of control",[2],6.6%
same,"kinase still bound, per cent of control",MAP3K2 (human),100%
same,"kinase still bound, per cent of control",MAP3K3 (human),100%
same,"kinase still bound, per cent of control",MAP4K4 (human),100%
same,"kinase still bound, per cent of control",MAPK3 (human),100%
same,"kinase still bound, per cent of control",MAPK9 (human),0.05%
same,"kinase still bound, per cent of control",[3],79%
same,"kinase still bound, per cent of control",MYLK3 (human),100%
same,"kinase still bound, per cent of control",MYLK4 (human),20%
same,"kinase still bound, per cent of control",NEK4 (human),100%
same,"kinase still bound, per cent of control",NEK6 (human),100%
same,"kinase still bound, per cent of control",NEK7 (human),100%
same,"kinase still bound, per cent of control",PAK1 (human),100%
same,"kinase still bound, per cent of control",PAK2 (human),100%
same,"kinase still bound, per cent of control",PDGFRA (human),100%
same,"kinase still bound, per cent of control",PI4KB (human),65%
same,"kinase still bound, per cent of control",[4],100%
same,"kinase still bound, per cent of control",PLK3 (human),59%
same,"kinase still bound, per cent of control",PRKCQ (human),100%
same,"kinase still bound, per cent of control",PRKD2 (human),100%
same,"kinase still bound, per cent of control",PRKD3 (human),100%
same,"kinase still bound, per cent of control",PTK2B (human),100%
same,"kinase still bound, per cent of control",RAF1 (human),91%
same,"kinase still bound, per cent of control",[5],17%
same,"kinase still bound, per cent of control",RIOK2 (human),18%
same,"kinase still bound, per cent of control",STK17B (human),100%
same,"kinase still bound, per cent of control",STK3 (human),91%
same,"kinase still bound, per cent of control",TEK (human),100%
same,"kinase still bound, per cent of control",TLK1 (human),100%
same,"kinase still bound, per cent of control",TSSK1B (human),100%
same,"kinase still bound, per cent of control",WEE1 (human),100%
same,"kinase still bound, per cent of control",YES1 (human),100%
